Literature values in US20220117956A1, “LSD FOR THE TREATMENT OF ALZHEIMER'S DISEASE” (Eleusis Therapeutics US, Inc., priority 2015, published 2022).

Tests used:
[1] = formulated for immediate release; depending on dosage, tolerance, body weight and age
[2] = immediate release LSD dosed at 1 μg/kg

## CCN(CC)C(=O)[C@@H]1C=C2c3cccc4[nH]cc(c34)C[C@H]2N(C)C1 [LSD, lysergic acid diethylamide]
[1]
  duration of LSD's effects: 6 to 12 h
[2]
  apparent plasma half-life: 5.1 h
  time of peak plasma concentration post-dose: 3 h
[2]; at 3 hours post-dose
  peak plasma concentration: 5 ng/mL
